Test results published in patent US8552002B2 (Novartis AG, priority 2004, dated 2013).

What was measured:
PDGFRβ = PDGFRβ (Homo sapiens, UniProt P09619); test: Inhibition of PDGFRβ; format: biochemical
Experimental: Compounds selectively inhibiting the proliferation of these BCR-Abl transformed cells are tested for anti-proliferative activity on Ba/F3 cells expressing either wild type or the mutant forms of Bcr-abl. In addition, compounds are assayed to measure their capacity to inhibit FGFR35 (in an enzyme and cellular assay), FLT3, PDGFRβ, trkB, c-SRC, BMX, SGK, Tie2, Lck, JNK2α2, MKK4, c-RAF, MKK6, SAPK2α and SAPK2β kinases.

FGFR35 [1] = target: T1, FGFR35 (Homo sapiens, UniProt P22607); test: FGFR35 (enzymatic assay), HTRF; format: biochemical; parameters: purchased Upstate; conditions: purified FGFR35, 3 μM ATP; read-out: IC50 for the FGFR35 enzyme assay
Experimental: Kinase activity assay with purified FGFR35 (Upstate) is carried out in a final volume of 10 μL containing 0.25 μg/mL of enzyme in kinase buffer (30 mM Tris-HCl pH7.5, 15 mM MgCl2, 4.5 mM MnCl2, 15 μM Na3VO4 and 50 μg/mL BSA), and substrates (5 μg/mL biotin-poly-EY(Glu, Tyr) (CIS-US, Inc.) and 3 μM ATP). Two solutions are made: the first solution of 5 μl contains the FGFR35 enzyme in kinase buffer was first dispensed into 384—format ProxiPlate® (Perkin-Elmer) followed by adding 50 nL of compounds dissolved in DMSO, then 5 μl of second solution contains the substrate (poly-EY) and ATP in kinase buffer was added to each wells. The reactions are incubated at room temperature for one hour, stopped by adding 10 μL of HTRF detection mixture, which contains 30 mM Tris-HCl pH7.5, 0.5 M KF, 50 mM ETDA, 0.2 mg/mL BSA, 15 μg/mL streptavidin-XL665 (CIS-US, Inc.) and 150 ng/mL cryptate conjugated anti-phosphotyrosine antibody (CIS-US, Inc.). After one hour of room temperature incubation to allow for streptavidin-biotin interaction, time resolved florescent signals are read on Analyst GT (Molecular Devices Corp.). IC50 values are calculated by linear regression analysis of the percentage inhibition of each compound at 12 concentrations (1:3 dilution from 50 μM to 0.28 nM).
Target sequence in this assay (P22607 23-806): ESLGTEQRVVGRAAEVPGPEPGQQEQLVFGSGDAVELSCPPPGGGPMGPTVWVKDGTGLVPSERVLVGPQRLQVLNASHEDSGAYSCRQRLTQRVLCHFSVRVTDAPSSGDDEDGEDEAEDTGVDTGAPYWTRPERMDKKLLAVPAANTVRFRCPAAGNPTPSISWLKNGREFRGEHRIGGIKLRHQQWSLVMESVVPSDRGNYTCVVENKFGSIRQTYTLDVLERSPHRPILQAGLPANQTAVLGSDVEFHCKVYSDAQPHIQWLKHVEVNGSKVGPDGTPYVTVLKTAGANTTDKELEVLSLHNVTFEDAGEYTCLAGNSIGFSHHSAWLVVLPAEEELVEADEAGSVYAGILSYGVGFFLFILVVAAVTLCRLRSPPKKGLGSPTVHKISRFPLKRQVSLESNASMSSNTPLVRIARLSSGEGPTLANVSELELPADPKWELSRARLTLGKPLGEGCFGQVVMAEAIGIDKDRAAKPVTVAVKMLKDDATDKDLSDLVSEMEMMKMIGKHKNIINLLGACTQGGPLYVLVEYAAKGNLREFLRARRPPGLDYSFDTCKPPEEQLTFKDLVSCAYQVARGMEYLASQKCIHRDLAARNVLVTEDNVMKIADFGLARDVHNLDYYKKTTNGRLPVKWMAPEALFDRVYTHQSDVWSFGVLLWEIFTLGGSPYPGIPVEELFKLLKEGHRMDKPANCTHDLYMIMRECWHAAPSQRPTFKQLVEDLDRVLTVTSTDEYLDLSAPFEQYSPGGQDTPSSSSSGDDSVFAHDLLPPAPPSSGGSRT

FGFR35 [2] = target: T1, FGFR35; test: Upstate KinaseProfiler radio-enzymatic filter binding assay; format: biochemical; parameters: purchased Upstate; conditions: read-out: percentage inhibition of FGFR35
Experimental: Compounds of the invention are assessed for their ability to inhibit individual members of a panel of kinases (a partial, non-limiting list of kinases includes: Abl, BCR-Abl, BMX, FGFR35, Lck, JNK1, JNK2, CSK, RAF, MKK6 and P38). The compounds are tested in duplicates at a final concentration of 10 μM following this generic protocol. Note that the kinase buffer composition and the substrates vary for the different kinases included in the “Upstate KinaseProfiler™” panel. Kinase buffer (2.5 μL, 10×—containing MnCl2 when required), active kinase (0.001-0.01 Units; 2.5 μL), specific or Poly(Glu4-Tyr) peptide (5-500 μM or 0.01 mg/ml) in kinase buffer and […] are mixed in an eppendorf on ice. A Mg/ATP mix (10 μL; 67.5 (or 33.75) mM MgCl2, 450 (or 225) μM ATP and 1 μCi/μl [γ-^32P]-ATP (3000 Ci/mmol)) is added and the reaction is incubated at about 30° C. for about 10 minutes. […] The assay squares are transferred to a scintillation vial, 5 ml scintillation cocktail are added and ^32P incorporation (cpm) to the peptide substrate is quantified with a Beckman scintillation counter. Percentage inhibition is calculated for each reaction.
Target sequence in this assay (P22607 23-806): as above

FGFR35 [3] = target: T1, FGFR35; test: FGFR35 (cellular assay), proliferation of Ba/F3-TEL-FGFR35 cells; format: cell-based; parameters: fused on or other part: N-terminal part of TEL (ETV6), which acts as the oligomerising partner; it is fused to the part of FGFR3 that carries the kinase; P41212 (Transcription factor ETV6); conditions: 48 hours, read-out: IC50 for the FGFR35 cellular assay
Experimental: Compounds of the invention are tested for their ability to inhibit transformed Ba/F3-TEL-FGFR35 cells proliferation, which is depended on FGFR35 cellular kinase activity. Ba/F3-TEL-FGFR35 are cultured up to 800,000 cells/mL in suspension, with RPMI 1640 supplemented with 10% fetal bovine serum as the culture medium. Cells are dispensed into 384-well format plate at 5000 cell/well in 50 μL culture medium. Compounds of the invention are dissolved and diluted in dimethylsulfoxide (DMSO). Twelve points 1:3 serial dilutions are made into DMSO to create concentrations gradient ranging typically from 10 mM to 0.05 μM. Cells are added with 50 nL of diluted compounds and incubated for 48 hours in cell culture incubator. AlamarBlue® (TREK Diagnostic Systems), which can be used to monitor the reducing environment created by proliferating cells, are added to cells at final concentration of 10%. After additional four hours of incubation in a 37° C. cell culture incubator, fluorescence signals from reduced AlamarBlue® (Excitation at 530 nm, Emission at 580 nm) are quantified on Analyst GT (Molecular Devices Corp.). IC50 values are calculated by linear regression analysis of the percentage inhibition of each compound at 12 concentrations.
Target sequence in this assay (P22607 472-761 limits assumed, stated change not applied): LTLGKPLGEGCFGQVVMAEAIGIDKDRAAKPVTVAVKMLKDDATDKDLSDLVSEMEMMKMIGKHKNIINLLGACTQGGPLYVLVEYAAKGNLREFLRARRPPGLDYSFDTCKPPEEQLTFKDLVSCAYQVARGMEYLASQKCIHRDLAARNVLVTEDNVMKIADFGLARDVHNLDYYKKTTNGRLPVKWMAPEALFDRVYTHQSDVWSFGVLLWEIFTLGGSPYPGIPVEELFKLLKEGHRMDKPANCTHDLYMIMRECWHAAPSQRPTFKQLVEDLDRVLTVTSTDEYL

PDGFRβ, sequence (P09619 33-1106, species assumed): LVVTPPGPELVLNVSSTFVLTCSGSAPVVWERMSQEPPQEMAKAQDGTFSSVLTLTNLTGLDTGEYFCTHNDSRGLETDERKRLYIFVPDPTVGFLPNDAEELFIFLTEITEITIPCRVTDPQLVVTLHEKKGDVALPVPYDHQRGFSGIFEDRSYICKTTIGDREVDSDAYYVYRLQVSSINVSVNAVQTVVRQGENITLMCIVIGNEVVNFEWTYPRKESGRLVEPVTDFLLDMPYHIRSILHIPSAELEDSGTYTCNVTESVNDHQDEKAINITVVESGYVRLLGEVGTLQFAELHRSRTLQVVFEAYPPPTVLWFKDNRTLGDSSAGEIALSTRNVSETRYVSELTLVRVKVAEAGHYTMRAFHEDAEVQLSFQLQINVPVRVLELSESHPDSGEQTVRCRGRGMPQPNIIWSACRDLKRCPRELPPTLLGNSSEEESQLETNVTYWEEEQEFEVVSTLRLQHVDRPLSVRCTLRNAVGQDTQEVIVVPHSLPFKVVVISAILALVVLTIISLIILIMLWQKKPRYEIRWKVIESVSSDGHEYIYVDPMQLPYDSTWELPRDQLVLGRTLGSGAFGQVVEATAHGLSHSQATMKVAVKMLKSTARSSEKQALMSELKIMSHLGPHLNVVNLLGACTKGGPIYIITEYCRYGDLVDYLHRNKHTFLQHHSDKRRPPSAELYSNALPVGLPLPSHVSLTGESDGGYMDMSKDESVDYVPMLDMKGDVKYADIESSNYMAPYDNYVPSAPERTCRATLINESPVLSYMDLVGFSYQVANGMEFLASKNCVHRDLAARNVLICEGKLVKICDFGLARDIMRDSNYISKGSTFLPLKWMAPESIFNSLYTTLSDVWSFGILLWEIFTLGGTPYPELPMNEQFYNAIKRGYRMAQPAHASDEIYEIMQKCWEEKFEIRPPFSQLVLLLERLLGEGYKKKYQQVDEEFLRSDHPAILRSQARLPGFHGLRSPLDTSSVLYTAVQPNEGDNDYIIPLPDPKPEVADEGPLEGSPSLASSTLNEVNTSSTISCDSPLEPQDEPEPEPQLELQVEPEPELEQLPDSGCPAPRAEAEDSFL

- IC50 (PDGFRβ): 2 nM
- IC50 (FGFR35 [1]): 16 nM
- inhibition at 10 µM (FGFR35 [2]): 99%
- GI50 (FGFR35 [3]): 15 nM
SMILES: Cc1ccc(NC(=O)c2cccc(C(F)(F)F)c2)cc1NC(=O)N(CCCN1CCCC1=O)c1cc(N)ncn1 [Example 215, N-(3-{3-(6-Amino-pyrimidin-4-yl)-3-[3-(2-oxo-pyrrolidin-1-yl)-propyl]-ureido}-4-methyl-phenyl)-3-trifluoromethyl-benzamide]
